Source: PubChem BioAssay (NCI)
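1) Cells in 96-well plates. 2) Compound, 48 h, 5 concentrations. 3) Linear interpolation between surrounding doses. 4) Unreached endpoint = highest concentration. The concentration for full growth arrest is given as TGI.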

How the values were obtained:
Test in all cases: growth of human tumour cells (NCI), 48 h
RPMI-8226 leukemia = system: RPMI-8226 leukemia
IGROV1 ovarian = system: IGROV1 ovarian
EKVX NSCLC = system: EKVX NSCLC
786-0 renal = system: 786-0 renal
A549 NSCLC = system: A549 NSCLC
KM12 colon = system: KM12 colon
SK-MEL-28 melanoma = system: SK-MEL-28 melanoma
HCC-2998 colon = system: HCC-2998 colon
SNB-75 CNS = system: SNB-75 CNS
SN12C renal = system: SN12C renal
SK-OV-3 ovarian = system: SK-OV-3 ovarian
MALME-3M melanoma = system: MALME-3M melanoma
PC-3 prostate = system: PC-3 prostate
UACC-62 melanoma = system: UACC-62 melanoma
NCI/ADR-RES ovarian = system: NCI/ADR-RES ovarian
OVCAR-3 ovarian = system: OVCAR-3 ovarian
NCI-H460 lung = system: NCI-H460 lung
COLO 205 colon = system: COLO 205 colon
TK-10 renal = system: TK-10 renal
HL-60(TB) leukemia = system: HL-60(TB) leukemia
MDA-N = system: MDA-N
HCT-116 colon = system: HCT-116 colon
DU-145 prostate = system: DU-145 prostate
MDA-MB-231 breast = system: MDA-MB-231 breast
MDA-MB-435 = system: MDA-MB-435
K-562 leukemia = system: K-562 leukemia
OVCAR-8 ovarian = system: OVCAR-8 ovarian
T-47D breast = system: T-47D breast
MOLT-4 leukemia = system: MOLT-4 leukemia
HT29 colon = system: HT29 colon
U251 CNS = system: U251 CNS
HOP-62 NSCLC = system: HOP-62 NSCLC
RXF 393 renal = system: RXF 393 renal
CCRF-CEM leukemia = system: CCRF-CEM leukemia
SF-539 CNS = system: SF-539 CNS
BT-549 breast = system: BT-549 breast
HOP-92 NSCLC = system: HOP-92 NSCLC
HS 578T breast = system: HS 578T breast
NCI-H23 lung = system: NCI-H23 lung
SF-295 CNS = system: SF-295 CNS
UACC-257 melanoma = system: UACC-257 melanoma
UO-31 renal = system: UO-31 renal
A498 renal = system: A498 renal
NCI-H226 lung = system: NCI-H226 lung
HCT-15 colon = system: HCT-15 colon
NCI-H522 lung = system: NCI-H522 lung
SK-MEL-5 melanoma = system: SK-MEL-5 melanoma
OVCAR-4 ovarian = system: OVCAR-4 ovarian
SW-620 colon = system: SW-620 colon
M14 melanoma = system: M14 melanoma
LOX IMVI melanoma = system: LOX IMVI melanoma
SR leukemia = system: SR leukemia
ACHN renal = system: ACHN renal
MCF7 breast = system: MCF7 breast
SF-268 CNS = system: SF-268 CNS
SNB-19 CNS = system: SNB-19 CNS
CAKI-1 renal = system: CAKI-1 renal
OVCAR-5 ovarian = system: OVCAR-5 ovarian

Measured: TGI

CCCCN(C(=O)c1ccccc1)C1CCC(=O)c2[nH]c3ccccc3c21 (configuration not stated)
48.1 µM: COLO 205 colon
89.9 µM: T-47D breast
68.8 µM: RPMI-8226 leukemia
51.2 µM: HS 578T breast
70 µM: RXF 393 renal
84.5 µM: HOP-92 NSCLC
75.2 µM: SNB-75 CNS
84 µM: CAKI-1 renal
49.9 µM: SK-MEL-5 melanoma
41.4 µM: SR leukemia
93.4 µM: NCI-H226 lung
29.6 µM: HL-60(TB) leukemia
not listed: OVCAR-5 ovarian
> 100 µM: all other assays above

CCOC(=O)c1nc2cc(C(F)(F)F)ccc2nc1Nc1ccc(OC)c(OC)c1
not listed: U251 CNS | NCI-H226 lung | OVCAR-4 ovarian
> 100 µM: all other assays above
